Patent US10028966B2 (Avalyn Pharma Inc., priority 2014, dated 2018)
Like-named read-outs stand apart in the source and are kept apart here.

What was measured:
[1] = Pharmacokinetics and tissue distribution (lung, plasma, heart, kidney) of co-solvent formulations, intratracheal bolus aerosol; type: in vivo, Sprague-Dawley rats; conditions: for concentration at 0.167 hr / concentration at 0.333 hr / concentration at 0.667 hr / concentration at 0 h / concentration at 4 min / concentration at 2.5 h / concentration at 0.167 h / concentration at 0.333 h / concentration at 0.667 h / concentration at 1 h: Sprague-Dawley, rat, 4 mg/kg, Pirfenidone, Mean, about 4 mg/kg IT aerosol; for concentration at 0.167 hr / concentration at 0.333 hr / concentration at 0.667 hr: other: intratracheal bolus aerosol (nebulizing catheter); for concentration at 0 h / concentration at 4 min / concentration at 2.5 h / concentration at 0.167 h / concentration at 0.333 h / concentration at 0.667 h / concentration at 1 h: other: intratracheal bolus aerosol; for concentration at 4 min: 0.0667 hr
Protocol: Selected formulations were prepared for pharmacokinetic analysis following aerosol delivery to rat lung. […] Formulations prepared for this study are outlined in Table 9. […] The sample was agitated until completely dissolved. […] Filtered samples were analyzed by HPLC.

[2] = cited from earlier work; for AUC over 0-18 hours / Cmax: human, plasma (Rubino et al., 2009)
[3] = target: T1, CYP1A2 (Homo sapiens, UniProt P05177); conditions: hepatic microsomes; cited from earlier work
T1 construct: In vitro metabolism studies with hepatic microsomes; from tissue; host or cells: hepatic microsomes
T1 sequence (P05177 whole entry): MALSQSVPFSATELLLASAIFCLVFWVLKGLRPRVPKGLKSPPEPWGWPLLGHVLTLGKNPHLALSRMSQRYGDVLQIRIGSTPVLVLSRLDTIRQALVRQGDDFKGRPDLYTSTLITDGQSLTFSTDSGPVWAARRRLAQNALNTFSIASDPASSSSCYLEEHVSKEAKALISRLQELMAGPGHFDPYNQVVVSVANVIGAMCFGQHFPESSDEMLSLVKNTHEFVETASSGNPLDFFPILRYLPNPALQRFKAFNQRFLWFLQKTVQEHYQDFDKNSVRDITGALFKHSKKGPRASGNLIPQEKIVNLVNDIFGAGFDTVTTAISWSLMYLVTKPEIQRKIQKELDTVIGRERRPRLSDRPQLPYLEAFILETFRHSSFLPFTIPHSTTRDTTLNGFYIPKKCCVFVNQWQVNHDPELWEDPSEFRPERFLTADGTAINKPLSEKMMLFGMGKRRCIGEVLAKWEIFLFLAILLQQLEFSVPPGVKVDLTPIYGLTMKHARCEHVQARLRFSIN

**Q.** With `Cc1ccc(=O)n(-c2ccccc2)c1` [pirfenidone, 5-methyl-1-phenyl-2-(1H)-pyridone] as the molecule, how does the concentration at 0.167 hr ([1]; heart, heart tissue, Group 1) read?
**A.** The concentration at 0.167 hr was 4910 ng/g.

**Q.** And the concentration at 0.333 hr ([1]; heart, heart tissue, Group 1)?
**A.** The concentration at 0.333 hr was 3850 ng/g.

**Q.** And the concentration at 0.667 hr ([1]; heart, heart tissue, Group 1)?
**A.** Its concentration at 0.667 hr is 1800 ng/g.

**Q.** And the concentration at 0.167 hr ([1]; heart, heart tissue, Group 2)?
**A.** The concentration at 0.167 hr was 4100 ng/g.

**Q.** What about the concentration at 0.333 hr ([1]; heart, heart tissue, Group 2) of the same molecule?
**A.** Its concentration at 0.333 hr is 3130 ng/g.

**Q.** What about the concentration at 0.667 hr ([1]; heart, heart tissue, Group 2) of the same molecule?
**A.** Its concentration at 0.667 hr is 2190 ng/g.

**Q.** And the concentration at 0.167 hr ([1]; heart, heart tissue, Group 6)?
**A.** The concentration at 0.167 hr was 4950 ng/g.

**Q.** And the concentration at 0.333 hr ([1]; heart, heart tissue, Group 6)?
**A.** Its concentration at 0.333 hr is 3430 ng/g.

**Q.** And the concentration at 0.667 hr ([1]; heart, heart tissue, Group 6)?
**A.** Its concentration at 0.667 hr is 2220 ng/g.

**Q.** And the concentration at 0 h ([1]; heart, heart tissue, Group 1)?
**A.** The concentration at 0 h was 20 ng/g.

**Q.** What about the concentration at 4 min ([1]; heart, heart tissue, Group 1) of the same molecule?
**A.** The concentration at 4 min was 7900 ng/g.

**Q.** What about the concentration at 2.5 h ([1]; heart, heart tissue, Group 1) of the same molecule?
**A.** The concentration at 2.5 h was 90 ng/g.

**Q.** And the concentration at 0 h ([1]; heart, heart tissue, Group 2)?
**A.** Its concentration at 0 h is 190 ng/g.

**Q.** And the concentration at 4 min ([1]; heart, heart tissue, Group 2)?
**A.** The concentration at 4 min was 5920 ng/g.

**Q.** And the concentration at 2.5 h ([1]; heart, heart tissue, Group 2)?
**A.** The concentration at 2.5 h was 120 ng/g.

**Q.** And the concentration at 0 h ([1]; heart, heart tissue, Group 6)?
**A.** The concentration at 0 h was 80 ng/g.

**Q.** And the concentration at 4 min ([1]; heart, heart tissue, Group 6)?
**A.** Its concentration at 4 min is 6320 ng/g.

**Q.** And the concentration at 2.5 h ([1]; heart, heart tissue, Group 6)?
**A.** Its concentration at 2.5 h is 120 ng/g.

**Q.** And the concentration at 0 h ([1]; kidney, kidney tissue, Group 1)?
**A.** The concentration at 0 h was 10 ng/g.

**Q.** And the concentration at 4 min ([1]; kidney, kidney tissue, Group 1)?
**A.** The concentration at 4 min was 9880 ng/g.

**Q.** What about the concentration at 0.167 h ([1]; kidney, kidney tissue, Group 1) of the same molecule?
**A.** The concentration at 0.167 h was 6620 ng/g.

**Q.** And the concentration at 0.333 h ([1]; kidney, kidney tissue, Group 1)?
**A.** Its concentration at 0.333 h is 4870 ng/g.

**Q.** What about the concentration at 0.667 h ([1]; kidney, kidney tissue, Group 1) of the same molecule?
**A.** Its concentration at 0.667 h is 2860 ng/g.

**Q.** What about the concentration at 0 h ([1]; kidney, kidney tissue, Group 2) of the same molecule?
**A.** The concentration at 0 h was 470 ng/g.

**Q.** What about the concentration at 4 min ([1]; kidney, kidney tissue, Group 2) of the same molecule?
**A.** Its concentration at 4 min is 10800 ng/g.

**Q.** What about the concentration at 0.167 h ([1]; kidney, kidney tissue, Group 2) of the same molecule?
**A.** The concentration at 0.167 h was 8300 ng/g.

**Q.** And the concentration at 0.333 h ([1]; kidney, kidney tissue, Group 2)?
**A.** Its concentration at 0.333 h is 7440 ng/g.

**Q.** What about the concentration at 0.667 h ([1]; kidney, kidney tissue, Group 2) of the same molecule?
**A.** Its concentration at 0.667 h is 3310 ng/g.

**Q.** And the concentration at 1 h ([1]; kidney, kidney tissue, Group 2)?
**A.** Its concentration at 1 h is 1750 ng/g.

**Q.** What about the concentration at 2.5 h ([1]; kidney, kidney tissue, Group 2) of the same molecule?
**A.** Its concentration at 2.5 h is 180 ng/g.

**Q.** What about the concentration at 0 h ([1]; kidney, kidney tissue, Group 6) of the same molecule?
**A.** Its concentration at 0 h is 270 ng/g.

**Q.** And the concentration at 4 min ([1]; kidney, kidney tissue, Group 6)?
**A.** The concentration at 4 min was 12900 ng/g.

**Q.** And the concentration at 0.167 h ([1]; kidney, kidney tissue, Group 6)?
**A.** Its concentration at 0.167 h is 6650 ng/g.

**Q.** And the concentration at 0.333 h ([1]; kidney, kidney tissue, Group 6)?
**A.** The concentration at 0.333 h was 4870 ng/g.

**Q.** And the concentration at 0.667 h ([1]; kidney, kidney tissue, Group 6)?
**A.** Its concentration at 0.667 h is 3530 ng/g.

**Q.** What about the concentration at 1 h ([1]; kidney, kidney tissue, Group 6) of the same molecule?
**A.** Its concentration at 1 h is 1710 ng/g.

**Q.** And the adverse events ([1]; about 4 mg/kg intratracheal bolus aerosol, co-solvent formulations, rats)?
**A.** Its adverse events is “No adverse events were noted”.

**Q.** And the T1/2 beta ([2]; aerosol 110 mg RDD, lung tissue, from plasma T1/2, Rubino et al., 2009 fasted-state)?
**A.** Its T1/2 beta is 2.5 h.

**Q.** And the T1/2 beta ([2]; aerosol 110 mg RDD, plasma, Rubino et al., 2009 fasted-state)?
**A.** Its T1/2 beta is 2.5 h.

**Q.** And the T1/2 beta ([2]; aerosol 154 mg RDD, lung tissue, from plasma T1/2, Rubino et al., 2009 fasted-state)?
**A.** The T1/2 beta was 2.5 h.

**Q.** And the T1/2 beta ([2]; aerosol 154 mg RDD, plasma, Rubino et al., 2009 fasted-state)?
**A.** Its T1/2 beta is 2.5 h.

**Q.** What about the T1/2 beta ([2]; aerosol 185 mg RDD, lung tissue, from plasma T1/2, Rubino et al., 2009 fasted-state) of the same molecule?
**A.** The T1/2 beta was 2.5 h.

**Q.** What about the T1/2 beta ([2]; aerosol 185 mg RDD, plasma, Rubino et al., 2009 fasted-state) of the same molecule?
**A.** Its T1/2 beta is 2.5 h.

**Q.** What about the “AUC over 0-18 hours” value ([2]; oral 801 mg fasted-state) of the same molecule?
**A.** The value was 67700 ng·h/mL.

**Q.** And the Cmax ([2]; oral 801 mg fasted-state)?
**A.** Its Cmax is 14.2 microgram/mL.

**Q.** What about the “AUC over 0-18 hours” value ([2]; oral 801 mg fed-state) of the same molecule?
**A.** The value was 58900 ng·h/mL.

**Q.** And the Cmax ([2]; oral 801 mg fed-state)?
**A.** Its Cmax is 7.9 microgram/mL.

**Q.** And the T1/2 beta ([2]; oral 801 mg fasted-state, lung tissue, from plasma T1/2, Rubino et al., 2009)?
**A.** The T1/2 beta was 2.5 h.

**Q.** What about the T1/2 beta ([2]; oral 801 mg fasted-state, plasma, Rubino et al., 2009) of the same molecule?
**A.** Its T1/2 beta is 2.5 h.

**Q.** And the T1/2 beta ([2]; oral 801 mg fed-state, lung tissue, from plasma T1/2, Rubino et al., 2009)?
**A.** The T1/2 beta was 2.4 h.

**Q.** What about the T1/2 beta ([2]; oral 801 mg fed-state, plasma, Rubino et al., 2009) of the same molecule?
**A.** The T1/2 beta was 2.4 h.

**Q.** What about the “pirfenidone metabolised via CYP1A2” value [3] of the same molecule?
**A.** Its value is “approximately 48%”.
